Data from PubChem BioAssay AID248 (DTP/NCI, 2004).
Where “and” joins values, the source holds several entries; their conditions need not be identical. Identical values can stand only once. Inconclusive results and toxic doses are left out. No stated cut-off is given here; in the data, active means T/C of 150% or more; inactive means T/C below 125%. Square brackets hold non-standard residues; d marks the D form. Peptide text beside a SMILES is read from it. ξ: configuration not given here. ξF = NC(Cc1ccccc1)C(=O)O

Test system: L1210 leukemia ip in BDF1 mice, survival T/C
Test: NCI In Vivo Anticancer Drug Screen. Data for tumor model L1210 Leukemia (intraperitoneal) in B6D2F1 (BDF1) mice
Details: endpoint: mean survival time, higher = longer survival
Procedure, shortened: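 Survival endpoint. Drug-treated group vs vehicle group, expressed as T divided by C. Tumor passaged by transplantation.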

[1] = dose: 50.0 mg/kg/injection, schedule: Q01DX001 (ip), vehicle: saline
[2] = dose: 100.0 mg/kg/injection, schedule: Q01DX001 (ip), vehicle: saline
[3] = dose: 200.0 mg/kg/injection, schedule: Q01DX001 (ip), vehicle: saline
[4] = dose: 400.0 mg/kg/injection, schedule: Q01DX001 (ip), vehicle: saline
[5] = dose: 100.0 mg/kg/injection, schedule: Q04DX002 (ip), vehicle: saline
[6] = dose: 200.0 mg/kg/injection, schedule: Q04DX002 (ip), vehicle: saline
[7] = dose: 100.0 mg/kg/injection, schedule: Q01DX009 (ip), vehicle: saline with Tween-80
[8] = dose: 100.0 mg/kg/injection, schedule: Q01DX001 (ip), vehicle: Klucel (hydroxypropylcellulose) (HPC)
[9] = dose: 200.0 mg/kg/injection, schedule: Q01DX001 (ip), vehicle: Klucel (hydroxypropylcellulose) (HPC)
[10] = dose: 400.0 mg/kg/injection, schedule: Q01DX001 (ip), vehicle: Klucel (hydroxypropylcellulose) (HPC)
[11] = dose: 200.0 mg/kg/injection, schedule: Q01DX009 (ip), vehicle: saline with Tween-80
[12] = dose: 400.0 mg/kg/injection, schedule: Q01DX009 (ip), vehicle: saline with Tween-80
[13] = dose: 100.0 mg/kg/injection, schedule: Q04DX003 (ip), vehicle: saline
[14] = dose: 200.0 mg/kg/injection, schedule: Q01DX009 (ip), vehicle: Klucel (hydroxypropylcellulose) (HPC)
[15] = dose: 200.0 mg/kg/injection, schedule: Q04DX003 (ip), vehicle: saline

Measured: T/C

C(=N\Nc1nnc(N/N=C/c2cccc(OCc3ccccc3)c2)c2ccccc12)/c1cccc(OCc2ccccc2)c1
inactive: [1] 101 % of control | [2] 95 % of control | [3] 92 % of control | [4] 97 % of control

NCCCNCCNCCCN
inactive: [5] 98 % of control | [6] 98 % of control

CCCCC(=O)N1CCCC1
inactive: [5] 96 % of control | [6] 92 % of control | dose: 400.0 mg/kg/injection, schedule: Q04DX002 (ip), vehicle: saline 111 % of control

O=c1nc2n(CCN(CCO)CCO)c3cc(Cl)c(Cl)cc3nc-2c(=O)[nH]1
inactive: dose: 5.0 mg/kg/injection, schedule: Q01DX009 (ip), vehicle: saline 107 % of control | dose: 10.0 mg/kg/injection, schedule: Q01DX001 (ip), vehicle: saline 95 % of control | dose: 10.0 mg/kg/injection, schedule: Q01DX009 (ip), vehicle: saline 93 % of control | dose: 20.0 mg/kg/injection, schedule: Q01DX001 (ip), vehicle: saline 102 % of control | dose: 20.0 mg/kg/injection, schedule: Q01DX009 (ip), vehicle: saline 104 % of control | dose: 40.0 mg/kg/injection, schedule: Q01DX001 (ip), vehicle: saline 91 % of control

N#CC(C(N)=O)c1ccccc1 (stereo not drawn)
inactive: dose: 25.0 mg/kg/injection, schedule: Q01DX009 (ip), vehicle: saline with Tween-80 86 % of control | dose: 25.0 mg/kg/injection, schedule: Q04DX003 (ip), vehicle: saline with Tween-80 99 % of control | dose: 50.0 mg/kg/injection, schedule: Q01DX009 (ip), vehicle: saline with Tween-80 94 % of control | dose: 50.0 mg/kg/injection, schedule: Q04DX003 (ip), vehicle: saline with Tween-80 100 % of control | [7] 90 % of control | dose: 100.0 mg/kg/injection, schedule: Q04DX003 (ip), vehicle: saline with Tween-80 98 % of control and 100 % of control

O=C(CCCN1CC=C(c2ccccc2)CC1)c1ccc(N2CCC(O)(c3ccc(Cl)cc3)CC2)cc1
inactive: [8] 89 % of control | [9] 95 % of control | [10] 92 % of control

CC(O)CNC(=O)C(C)(C)O (stereo not drawn)
inactive: dose: 100.0 mg/kg/injection, schedule: Q01DX009 (ip), vehicle: saline 96 % of control | dose: 200.0 mg/kg/injection, schedule: Q01DX009 (ip), vehicle: saline 96 % of control | dose: 400.0 mg/kg/injection, schedule: Q01DX009 (ip), vehicle: saline 94 % of control

CC(C)(C)c1ccc(C(c2ccc(C(C)(C)C)cc2)C(Cl)(Cl)Cl)cc1
inactive: [7] 88 % of control | dose: 100.0 mg/kg/injection, schedule: Q04DX003 (ip), vehicle: saline sonified 98 % of control | [11] 94 % of control | dose: 200.0 mg/kg/injection, schedule: Q04DX003 (ip), vehicle: saline sonified 95 % of control | [12] 92 % of control | dose: 400.0 mg/kg/injection, schedule: Q04DX003 (ip), vehicle: saline sonified 97 % of control

COc1ccc(OC)c(C(O)C(C)NC(C)(C)C)c1 (stereo not drawn)
inactive: [1] 106 % of control | [2] 97 % of control

CCCCCCCCCCCCC(C(=O)O)C1C=CCC1 (stereo not drawn)
inactive: dose: 100.0 mg/kg/injection, schedule: Q01DX001 (ip), vehicle: other 95 % of control | dose: 200.0 mg/kg/injection, schedule: Q01DX001 (ip), vehicle: other 90 % of control | dose: 400.0 mg/kg/injection, schedule: Q01DX001 (ip), vehicle: other 101 % of control

CC/S(=N\S(=O)(=O)c1ccc(C)cc1)c1ccccc1 (stereo not drawn)
inactive: [7] 108 % of control | [11] 100 % of control | [12] 100 % of control

CCOC(=O)c1ncn(C2OC(CO)C(O)C2O)c1N (stereo not drawn)
inactive: dose: 12.5 mg/kg/injection, schedule: Q01DX005 (ip), vehicle: saline with Tween-80 90 % of control | dose: 25.0 mg/kg/injection, schedule: Q01DX005 (ip), vehicle: saline with Tween-80 100 % of control | dose: 50.0 mg/kg/injection, schedule: Q01DX005 (ip), vehicle: saline with Tween-80 90 % of control | dose: 100.0 mg/kg/injection, schedule: Q01DX005 (ip), vehicle: saline with Tween-80 92 % of control | dose: 200.0 mg/kg/injection, schedule: Q01DX005 (ip), vehicle: saline with Tween-80 93 % of control

O=C(Nc1ccccc1Cl)Nc1cc(Cl)ccc1Cl
inactive: dose: 100.0 mg/kg/injection, schedule: Q04DX002 (ip), vehicle: saline + alcohol 100 % of control | dose: 200.0 mg/kg/injection, schedule: Q04DX002 (ip), vehicle: saline + alcohol 100 % of control | dose: 400.0 mg/kg/injection, schedule: Q04DX002 (ip), vehicle: saline + alcohol 92 % of control

CC(=O)N=C1CCCC1C#N (stereo not drawn)
inactive: dose: 100.0 mg/kg/injection, schedule: Q01DX009 (ip), vehicle: Klucel (hydroxypropylcellulose) (HPC) 101 % of control | [13] 105 % of control | [14] 101 % of control | [15] 109 % of control | dose: 400.0 mg/kg/injection, schedule: Q01DX009 (ip), vehicle: Klucel (hydroxypropylcellulose) (HPC) 95 % of control | dose: 400.0 mg/kg/injection, schedule: Q04DX003 (ip), vehicle: saline 100 % of control

CCN(CC)CCCCCOC(=O)c1ccccc1
inactive: dose: 50.0 mg/kg/injection, schedule: Q01DX009 (ip), vehicle: Klucel (hydroxypropylcellulose) (HPC) 92 % of control | dose: 100.0 mg/kg/injection, schedule: Q04DX003 (ip), vehicle: Klucel (hydroxypropylcellulose) (HPC) 97 % of control | [14] 96 % of control | dose: 200.0 mg/kg/injection, schedule: Q04DX003 (ip), vehicle: Klucel (hydroxypropylcellulose) (HPC) 107 % of control

NCC(=O)NC(Cc1ccccc1)C(=O)O (stereo not drawn) (H-Gly-[ξF]-OH)
inactive: [1] 110 % of control | [2] 96 % of control | [3] 112 % of control | [4] 107 % of control

O=Cc1ccc(OCc2cccc([N+](=O)[O-])c2)cc1
inactive: [8] 113 % of control | [9] 100 % of control | [10] 87 % of control

CCCCCCCCCCC[CH2][Sn]([Cl])([CH2]CCCCCCCCCCC)[CH2]CCCCCCCCCCC
inactive: dose: 100.0 mg/kg/injection, schedule: Q04DX002 (ip), vehicle: saline with Tween-80 96 % of control | dose: 200.0 mg/kg/injection, schedule: Q04DX002 (ip), vehicle: saline with Tween-80 96 % of control | dose: 400.0 mg/kg/injection, schedule: Q04DX002 (ip), vehicle: saline with Tween-80 93 % of control

CCOC(=O)c1cnc(C)nc1N
inactive: [8] 97 % of control | [9] 97 % of control | [10] 92 % of control

CCCCSc1ccccn1
inactive: dose: 50.0 mg/kg/injection, schedule: Q04DX003 (ip), vehicle: saline 114 % of control | [13] 98 % of control | [15] 90 % of control

C/C=C/C=C/C(=O)c1cc(C#N)c(OC)cc1O
inactive: dose: 100.0 mg/kg/injection, schedule: Q01DX001 (ip), vehicle: saline with Tween-80 93 % of control | dose: 200.0 mg/kg/injection, schedule: Q01DX001 (ip), vehicle: saline with Tween-80 90 % of control | dose: 400.0 mg/kg/injection, schedule: Q01DX001 (ip), vehicle: saline with Tween-80 93 % of control
